# Measured values as given in PubChem BioAssay AID2060610 (Molecular Pharmacology Branch, DTP, NCI, 2025).
# Tested on: 616215-338-R-J1-PDC complex spheroids, viability % test/control
# Test: Anticancer human tumor 616215-338-R-J1-PDC patient-derived colon adenocarcinoma cell line growth inhibition [CLK]
# Conditions: for IC50: curve of first compound; for viability, T/C: stronger effect = lower value
# Method in brief: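 Patient-derived tumor cells grown as complex spheroids with HUVEC endothelial cells and mesenchymal stem cells, treated with drug combinations. Concentrations descend in half-log steps from near clinical Cmax, or from 10 microM if Cmax unknown.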
# 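Further: spheroids exposed to agents for 7 days.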
# 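Wherever viability, T/C is given: 100% = DMSO vehicle wells.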
compound,measurement,setting,value
CC(C)CC(NC(=O)C(Cc1ccccc1)NC(=O)c1cnccn1)B(O)O (configuration not stated) + CNC(=O)c1ccc(Nc2nc(OC3CCCC3)c3c(-c4ccc5nc(C)oc5c4)c[nH]c3n2)c(OC)c1,IC50,second compound 0.0316 µM,5.4 nM
same,IC50,second compound 0.1 µM,4.28 nM
same,IC50,second compound 0.316 µM,< 0.949 nM
same,IC50,second compound 1 µM,< 0.949 nM
same,IC50,second compound 3.16 µM,< 0.949 nM
same,IC50,second compound 10 µM,< 0.949 nM
same,"viability, T/C","second compound 0.0316 µM, first compound 0.000949 µM",93.4%
same,"viability, T/C","second compound 0.0316 µM, first compound 0.003 µM",110%
same,"viability, T/C","second compound 0.0316 µM, first compound 0.00949 µM",0.37%
same,"viability, T/C","second compound 0.0316 µM, first compound 0.03 µM",0.24%
same,"viability, T/C","second compound 0.0316 µM, first compound 0.0949 µM",0.24%
same,"viability, T/C","second compound 0.0316 µM, first compound 0.3 µM",1.23%
same,"viability, T/C","second compound 0.1 µM, first compound 0.000949 µM",55.6%
same,"viability, T/C","second compound 0.1 µM, first compound 0.003 µM",88.9%
same,"viability, T/C","second compound 0.1 µM, first compound 0.00949 µM",0.21%
same,"viability, T/C","second compound 0.1 µM, first compound 0.03 µM",0.22%
same,"viability, T/C","second compound 0.1 µM, first compound 0.0949 µM",0.18%
same,"viability, T/C","second compound 0.1 µM, first compound 0.3 µM",0.5%
same,"viability, T/C","second compound 0.316 µM, first compound 0.000949 µM",45.9%
same,"viability, T/C","second compound 0.316 µM, first compound 0.003 µM",38.4%
same,"viability, T/C","second compound 0.316 µM, first compound 0.00949 µM",0.2%
same,"viability, T/C","second compound 0.316 µM, first compound 0.03 µM",0.18%
same,"viability, T/C","second compound 0.316 µM, first compound 0.0949 µM",0.15%
same,"viability, T/C","second compound 0.316 µM, first compound 0.3 µM",0.86%
same,"viability, T/C","second compound 1 µM, first compound 0.000949 µM",45.3%
same,"viability, T/C","second compound 1 µM, first compound 0.003 µM",29.9%
same,"viability, T/C","second compound 1 µM, first compound 0.00949 µM",0.19%
same,"viability, T/C","second compound 1 µM, first compound 0.03 µM",0.15%
same,"viability, T/C","second compound 1 µM, first compound 0.0949 µM",1.71%
same,"viability, T/C","second compound 1 µM, first compound 0.3 µM",1.14%
same,"viability, T/C","second compound 3.16 µM, first compound 0.000949 µM",45.7%
same,"viability, T/C","second compound 3.16 µM, first compound 0.003 µM",18.6%
same,"viability, T/C","second compound 3.16 µM, first compound 0.00949 µM",0.16%
same,"viability, T/C","second compound 3.16 µM, first compound 0.03 µM",0.16%
same,"viability, T/C","second compound 3.16 µM, first compound 0.0949 µM",0.18%
same,"viability, T/C","second compound 3.16 µM, first compound 0.3 µM",1.5%
same,"viability, T/C","second compound 10 µM, first compound 0.000949 µM",45.9%
same,"viability, T/C","second compound 10 µM, first compound 0.003 µM",19.5%
same,"viability, T/C","second compound 10 µM, first compound 0.00949 µM",0.22%
same,"viability, T/C","second compound 10 µM, first compound 0.03 µM",0.18%
same,"viability, T/C","second compound 10 µM, first compound 0.0949 µM",1.53%
same,"viability, T/C","second compound 10 µM, first compound 0.3 µM",2.83%
